Measured values taken from US20100040568A1, “Steroidal compounds as melanogenesis modifiers and uses thereof” (SkinMedica, Inc., priority 2008, published 2010).

Legend:
melan-a cells = experiment: Melanin assay in cultured murine melanocytes (melan-a); type: cell-based; conditions: 72 hours; for % of control remaining @ 1 μM / % of control remaining @ 5 μM: melanin, melan-a cells
Method: The Spectrum Collection library consisting of 2000 drug compounds or natural products was screened to identify novel pigmentation inhibitors or stimulators in cultured murine melanocytes (melan-a). Compounds were dissolved in dimethylsulfoxide (DMSO) to a final concentration of 10 mM. Screening was performed with cultured melanocytes in 24-well plates followed by melanin assay (see below). A minimum change of 50% in melanin formation was established as significant for a pigmentation inhibitor or stimulator. DMSO was used as a negative control and the widely used depigmenting agent, hydroquinone, was used as a positive control on every plate. […] Melan-a cells were plated at 5×10^4 cells per well in 1 ml of culture media in 24-well plates the day before adding the library compounds. All compounds were added at the indicated final concentrations. Cells were harvested after 72 hours of incubation, and melanin assay was performed. For the primary and secondary screening, cells were harvested and dissolved in 200 μl of 2N NaOH in 20% DMSO at 70° C. A 180-μl aliquot of the resulting solution was measured for absorbance at 490 nm. Cells are harvested in extraction buffer (1% Triton X-100, 50 mM Tris, 2 mM EDTA, 150 mM NaCl, pH 7.5) containing a complete protease inhibitor cocktail (Roche). The lysates were centrifuged at 14,000 rpm for 10 minutes at 4° C. BCA protein assay kit (Pierce) was used to measure the protein concentrations of the supernatants, and bovine serum albumin was used as a standard. […] A 180-μl aliquot of the resulting solution was measured for absorbance at 490 nm. The melanin contents were normalized to the total amount of protein. The IC50 value for inhibition of cellular melanin synthesis for conessine was determined by culturing melan-a cells with various concentrations of conessine for 72 hours. Briefly, melan-a cells were plated at 5×10^4 cells per well in 1 ml of culture media in 24-well plates the day before adding conessine. Conessine was added at the indicated final concentrations. DMSO was used as a negative control. Cells were harvested after 72 hours of incubation, and spectrophotometric melanin assay was performed on cell pellets. The melanin contents were normalized to the total amount of protein. Cell viability was determined by using the CellTiter 96 aqueous nonradioactive cell proliferation assay. […] Licorice extract was tested under similar conditions as conessine for its ability to decrease melanin synthesis in melan-a cells (FIG. 11c). Melan-a cells were plated at 5×10^4 cells per well in 1 ml of culture media in 24-well plates the day before adding Licorice extract. 70% ethanol was used as control and the Licorice extract was diluted in cell culture media at the indicated concentrations. […] Cells were harvested after 72 hours of incubation, and spectrophotometric melanin assay was performed on cell pellets. The melanin contents were normalized to the total amount of protein. Cell viability was determined by using the CellTiter 96 aqueous nonradioactive cell proliferation assay.

UV-induced pigmentation = conditions: topical application of 0.5%; cited from earlier work

| SMILES | % of control remaining @ 1 μM (melan-a cells) | % of control remaining @ 5 μM (melan-a cells) | inhibition of UV-induced pigmentation (UV-induced pigmentation) | effect on melanin synthesis in melan-a cells (melan-a cells; indicated concentrations) |
| --- | --- | --- | --- | --- |
| C[C@H]1C2CCC3[C@@H]4CC=C5C[C@@H](N(C)C)CC[C@]5(C)C4CC[C@@]32CN1C (mixture of isomers) [Compound 2, Con-5-enine, 3β-(dimethylamino)-, (±)-(8Cl) (Registry No: 14546-12-4)] | 78.4 % of control | 38.5 % of control | – | – |
| CC1C2CCC3C4CC=C5CC(N(C)C)CCC5(C)C4CCC32CN1C (stereo not drawn) [Compound 3, N,N-Dimethylcon-5-enin-3-amine] | 59.2 % of control | 28.4 % of control | – | – |
| CC1(C)C=Cc2c(ccc3c2OC[C@@H](c2ccc(O)cc2O)C3)O1 [glabridin] | – | – | can inhibit the UV-induced pigmentation | – |
| Oc1ccc(O)cc1 [hydroquinone, reference compound] | – | – | – | significantly inhibited melanogenesis in a dose-dependent manner |
